Where two headings read alike, the source gives them in different places.
How the values were obtained:
Dopamine Receptor [1] = assay: Inhibition of apomorphine induced stereotype behaviour in the rat; type: in vivo; set-up: key to I(a) Dose Inhibiting Stereotype Behaviour (slight inhibition, footnote *): *: slight at 0.05; key to I(a) Dose Inhibiting Stereotype Behaviour (slight inhibition, footnote +): +: slight at 1; settings: s.c.; for I(a) Dose Inhibiting Stereotype Behaviour (dose for complete inhibition): apomorphine induced, IA(x) = inactive at dose in brackets
Description: (§1) I. Dopamine Receptor Blocking Activity in the Central Nervous System
(a) Inhibition of apomorphine induced stereotype behaviour in the rat
(method of Ernst (1967), Psychopharmacologia (Berl.) 10 316-323).

Dopamine Receptor [2] = assay: Inhibition of apomorphine induced climbing in the mouse; type: in vivo; settings: p.o., apomorphine 1 mg/kg s.c.
Description: as §1
(b) Inhibition of apomorphine induced climbing in the mouse
The test is based on that described by Protais, P., Constantin, J. and Schwartz J.C. (1976), Psychopharmacology, 50, 1-6.
Apomorphine 1 mg/kg s.c. induces mice to climb the wall of a wire cage (inverted food hopper--11×7.5×18 cm high). Mice acclimatised in their home cages in groups of 5 are placed under the hoppers immediately after the injection of apomorphine 1 mg/kg s.c. At 10,20 and 30 minutes after injection climbing behaviour is scored. The mice are observed for 30 seconds and scored according to the position they spend the majority of time in, score 0--four paws on floor of cage; score 1--fore paws only on walls; score 2--all paws on wall of cage. The scores at all 3 times and for each mouse are summed and mice drug treated orally compared to mice receiving apomorphine only. A saline only treated group is also included and any score, generally <5% of maximum taken into account.

dopamine receptor [3] = biological target: T1, dopamine receptor (Rattus norvegicus, UniProt P61169); assay: In vitro displacement of radiolabelled spiroperidol from dopamine receptor membranes; type: binding, rat (Male Hooded Lister); settings: for inhibition at 10 µM: 0.25 h, 10^-5 M compound, read-out: I(c) Spiroperidol Displacement % at 10^-5 M
T1 construct: the caudate nucleus is quickly dissected out; from tissue; host or cells: caudate nucleus of male Hooded Lister rats, homogenate
T1 sequence (P61169 whole entry): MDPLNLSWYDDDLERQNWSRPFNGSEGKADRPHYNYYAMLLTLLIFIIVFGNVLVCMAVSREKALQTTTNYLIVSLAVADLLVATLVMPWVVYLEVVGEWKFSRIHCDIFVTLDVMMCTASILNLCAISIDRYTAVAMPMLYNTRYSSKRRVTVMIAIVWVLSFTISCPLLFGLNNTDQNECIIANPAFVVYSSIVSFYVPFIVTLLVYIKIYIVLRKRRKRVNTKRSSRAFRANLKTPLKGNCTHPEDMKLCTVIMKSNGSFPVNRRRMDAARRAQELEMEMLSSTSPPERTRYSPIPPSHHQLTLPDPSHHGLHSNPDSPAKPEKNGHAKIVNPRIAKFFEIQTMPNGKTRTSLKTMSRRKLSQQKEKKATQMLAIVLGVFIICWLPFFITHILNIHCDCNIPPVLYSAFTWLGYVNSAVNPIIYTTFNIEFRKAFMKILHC
Description: (c) In vitro displacement of radiolabelled spiroperidol from dopamine receptor membranes
Therefore a compound which displaces this ligand from dopamine receptor membranes may have neuroleptic properties.
Male Hooded Lister rats (200-300 g) are decapitated and the caudate nucleus is quickly dissected out. This is homogenised in ice cold Tris buffer (pH 7.7 at 25° C.) at a concentration of 10 mg/ml wet weight of tissue. The test compound (at 10^-5 M) or spiroperidol (standard curve from 10^-5 to 10^-9 M) is added to the assay tubes followed by 0.5 nM [^3 H]-spiroperidol. This is mixed with 500 μl of the membrane preparation and the assay tubes are incubated for 15 minutes at 37° C. After this period 4 ml ice cold Tris buffer is added to each tube and the solutions are filtered through per-soaked glass fibre filters. The filter is washed twice with 4 ml of the buffer and then transferred to a scintillation vial for counting. Single concentration results are given as a percentage of [^3 H]-spiroperidol displaced.

vomiting response = assay: Anti-emetic activity in the dog (apomorphine induced vomiting); type: in vivo; set-up: key to II Anti-Emetic Activity Dose, slight activity (footnote *): *: slight at 5 × 10^-4; settings: s.c.; for ED100: Canis lupus familiaris, 30 min before apomorphine HCl 0.1 mg/kg s.c., complete inhibition, read-out: II Anti-Emetic Activity Dose, Complete Inhibition
Description: II. Anti-emetic activity in the dog
Compounds were administered subcutaneously 30 minutes prior to administration of a standard dose of apomorphine HCl (0.1 mg/kg subcutaneously) and the vomiting response compared to that obtained when the same animals were dosed with apomorphine HCl and vehicle only.

intragastric pressure = assay: Increase in intragastric pressure in the rat; type: in vivo; set-up: III(a) Increase in Intragastric Pressure Dose (minimum dose for activity): unit not given here; settings: s.c., 40 minute period after administration
Description: (a) Increase in intragastric pressure in the rat
Intragastric pressure changes were recorded from previously starved conscious but restrained rats using a saline filled catheter inserted into the lumen of the stomach via a permanent gastric fistula. The catheter was connected to a physiological pressure transducer and pressure changes recorded on a hot wire pen recorder. In each animal a pre-dose period of 40 minutes was allowed to obtain a measure of spontaneous activity. An index of activity was obtained by measuring the average height of pressure waves during 10 minute periods. Values for 4 such periods were obtained during assessment of spontaneous activity and for the 40 minute period after the subcutaneous administration of the compounds. Students `t` test was applied to the difference in average values obtained for spontaneous and post-compound activity.

gastric emptying = assay: Increase in gastric emptying: reversal of apomorphine induced delay in gastric emptying in the rat; type: in vivo; settings: for III(b) Increase in Gastric Emptying: 10 mg/kg s.c., apomorphine HCl 5 mg/kg s.c. induced delay
Description: (b) Increase in gastric emptying: reversal of apomorphine induced delay in gastric emptying in the rat
Rats equipped with chromic gastric fistulae were used and it was through this that 5 ml of a test meal (5 ml phosphate buffer at pH 9) was administered and recovered. The % recovery of the standard meal after remaining in the stomach for 10 minutes was taken as an index of gastric emptying. Delay in gastric emptying was induced by the administration of apomorphine HCl (5 mg/kg subcutaneously) which was given 15 minutes prior to the subcutaneous administration of the compound. The % recoveries of the test meal were determined at 15-25 and 45-55 minutes post-dosing with the compound and compared with vehicle only dosed animals set up simultaneously. Six animals were used for each group.

dopamine receptor [4] = biological target: T1, dopamine receptor; settings: literature; cited from earlier work
[5] = Anti-obesity activity (single compound test); type: in vivo
[6] = Anti-arrhythmic activity (single compound test)
[7] = 0.5 nM [3H]-spiroperidol, rat caudate nucleus membranes
[8] = 0.5 nM [3H]-spiroperidol, rat caudate nucleus membranes, read-out: I(c) Spiroperidol Displacement ED50 (concentration for 50% displacement)

COc1cc(N)c(Cl)cc1C(=O)N[C@@H]1C[C@H]2CC[C@@H](C1)N2CC1CCCCC1 [Compound 30, 4-amino-5-chloro-2-methoxy-N-(3'β-[8'-cyclohexylmethyl-8'-azabicyclo-[3.2.1]-octyl])-benzamide]
I(a) Dose Inhibiting Stereotype Behaviour (slight inhibition, footnote *) (Dopamine Receptor [1]; slight at 0.05): * | I(b) Anti-Climbing Activity Dose, Complete Inhibition (Dopamine Receptor [2]): 5 mg/kg | IC50 (dopamine receptor [3]): 20 nM | II Anti-Emetic Activity Dose, slight activity (footnote *) (vomiting response; slight at 5 × 10^-4): * | III(a) Increase in Intragastric Pressure Dose (minimum dose for activity) (intragastric pressure): IA(1) | III(b) Increase in Gastric Emptying (gastric emptying): 0.05%

O=C(CCCN1CCC2(CC1)C(=O)NCN2c1ccccc1)c1ccc(F)cc1 [[3H]-spiroperidol]
binding to dopamine receptors in the brain (dopamine receptor [4]): high affinity

COc1cc(N)c(Cl)cc1C(=O)N[C@@H]1C[C@H]2CC[C@@H](C1)N2Cc1ccc(C)cc1 [Compound 13, 4amino-5chloro-2-methoxy-N-(3β-[8'[4"methylbenzyl]-8'-azabicyclo[3.2.1]octyl])-benzamide]
I(b) Anti-Climbing Activity Dose, ED50 (Dopamine Receptor [2]): 0.12 mg/kg | inhibition at 10 µM (dopamine receptor [3]; [7]): 54% | ED100 (vomiting response): 0.1 mg/kg

COc1cc(N)c(Cl)cc1C(=O)N[C@@H]1C[C@H]2CC[C@@H](C1)N2Cc1ccccc1 [Compound 5, 4-amino-5-chloro-2-methoxy-N-(3'β-[8'-benzyl]8-azabicyclo[3.2.1]octyl)benzamide]
I(a) Dose Inhibiting Stereotype Behaviour (dose for complete inhibition) (Dopamine Receptor [1]): 0.05 mg/kg | I(b) Anti-Climbing Activity Dose, ED50 (Dopamine Receptor [2]): 0.03 mg/kg | ED100 (vomiting response): 0.001 mg/kg | minimal effective dose (gastric emptying; sc, read-out: dose that significantly increases gastric emptying): 0.05 mg/kg | anti-obesity activity [5]: anti-obesity activity

COc1cc(N)c(Cl)cc1C(=O)N[C@@H]1C[C@H]2CC[C@@H](C1)N2C [Compound 19, 4-Amino-5-chloro-2-methoxy-N-(3'β-[8'-methy-8'-azabicyclo[3.2.1]-octyl])-benzamide]
I(a) Dose Inhibiting Stereotype Behaviour (dose for complete inhibition) (Dopamine Receptor [1]): IA(25) | I(b) Anti-Climbing Activity Dose, Complete Inhibition (Dopamine Receptor [2]): IA (inactive at 10 mg/Kg p.o.) | inhibition at 10 µM (dopamine receptor [3]; [7]): 64% | ED100 (vomiting response): 0.6 mg/kg | minimal effective dose (intragastric pressure; sc, 40 min, read-out: III(a) Increase in Intragastric Pressure Dose (minimum dose for activity)): 1 to 10 mg/kg | III(b) Increase in Gastric Emptying (gastric emptying): 25%

CCCCN1[C@@H]2CC[C@H]1C[C@@H](NC(=O)c1cc(Cl)c(N)cc1OC)C2 [Compound 27, 4-amino-5-chloro-2-methoxy-N-(3'α-[8'-n-butyl-8'-azabicyclo[3.2.1]-octyl])benzamide]
I(a) Dose Inhibiting Stereotype Behaviour (dose for complete inhibition) (Dopamine Receptor [1]): IA(10) | I(b) Anti-Climbing Activity Dose, Complete Inhibition (Dopamine Receptor [2]): IA (inactive at 10 mg/Kg p.o.) | inhibition at 10 µM (dopamine receptor [3]; [7]): 66% | ED100 (vomiting response): 1 mg/kg | III(a) Increase in Intragastric Pressure Dose (minimum dose for activity) (intragastric pressure): IA(10) | III(b) Increase in Gastric Emptying (gastric emptying): IA(10)

CCCCN1[C@@H]2CC[C@H]1C[C@H](NC(=O)c1cc(Cl)c(N)cc1OC)C2 [Compound 26, 4-amino-5-chloro-2-methoxy-N-(3'β-[8'-n-butyl-8'-azabicyclo[3.2.1]-octyl])benzamide]
I(a) Dose Inhibiting Stereotype Behaviour (slight inhibition, footnote +) (Dopamine Receptor [1]; slight at 1): + | I(b) Anti-Climbing Activity Dose, ED50 (Dopamine Receptor [2]): 2.9 mg/kg | IC50 (dopamine receptor [3]; [8]): 400 nM | ED100 (vomiting response): 0.4 mg/kg | III(b) Increase in Gastric Emptying (gastric emptying): 1%

COc1cc(N)c(Cl)cc1C(=O)N[C@H]1C[C@H]2CC[C@@H](C1)N2C [Compound 20, 4-amino-5-chloro-2-methoxy-N-(3'α-[8'-methyl-8'-azabicyclo[3.2.1]-octyl])-benzamide]
anti-arrhythmic activity [6]: anti-arrhythmic activity

COc1cc(N)c(Cl)cc1C(=O)N[C@@H]1C[C@H]2CC[C@@H](C1)N2CCc1ccccc1 [Compound 18, 4amino-5-chloro-2-methoxy-N-(3β-[8'-β-phenethyl]-['-azabicyclo[3.2.1]octyl])-benzamide]
I(a) Dose Inhibiting Stereotype Behaviour (dose for complete inhibition) (Dopamine Receptor [1]): IA(50) | I(b) Anti-Climbing Activity Dose, Complete Inhibition (Dopamine Receptor [2]): IA (inactive at 10 mg/Kg p.o.) | IC50 (dopamine receptor [3]; [8]): 600 nM | ED100 (vomiting response): 0.25 mg/kg | III(a) Increase in Intragastric Pressure Dose (minimum dose for activity) (intragastric pressure): IA(5)

COc1cc(N)c(Cl)cc1C(=O)N[C@@H]1C[C@H]2CCC[C@@H](C1)N2Cc1ccccc1 [Compound 12, 4-amino-5-chloro-2-methoxy-N-(3'β-[9'-benzyl-9'-azabicyclo-[3.3.1]-nonyl])-benzamide]
I(a) Dose Inhibiting Stereotype Behaviour (dose for complete inhibition) (Dopamine Receptor [1]): 0.5 mg/kg | I(b) Anti-Climbing Activity Dose, Complete Inhibition (Dopamine Receptor [2]): 2 mg/kg | inhibition at 10 µM (dopamine receptor [3]; [7]): 53% | ED100 (vomiting response): 0.1 mg/kg | III(a) Increase in Intragastric Pressure Dose (minimum dose for activity) (intragastric pressure): IA(1)

From patent US4544660A, “Pharmaceutically active tropanes” (Beecham Group p.l.c., priority 1978, dated 1985)
